Experimental findings from ChEMBL document CHEMBL2203176, “Structure-based bioisosterism design, synthesis and biological evaluation of novel 1,2,4-triazin-6-ylthioacetamides as potent HIV-1 NNRTIs” (Bioorg Med Chem Lett, 2012) are described below.

Molecules are shown by their SMILES.

Series [1] in a line: Selectivity index, ratio of CC50 for human MT4 cells to EC50 for HIV1 RES056 harboring reverse transcriptase K103N/Y181C mutant. In kind it is toxicity, cell-based. The conditions noted are these: read-out: Ratio CC50/EC50.
Series [2] relates to Human immunodeficiency virus 2. The experiment in a line: Antiviral activity against HIV2 ROD infected in human MT4 cells assessed as inhibition of virus-induced cytopathicity by MTT assay. In kind it is functional, organism-based. Particulars: Human immunodeficiency virus 2, ISOLATE ROD.
In series [3] the test system is Human immunodeficiency virus 1. The experiment in a line: Antiviral activity against HIV1 RES056 harboring reverse transcriptase K103N/Y181C mutant infected in human MT4 cells assessed as inhibition of virus-induced cytopathicity by MTT assay. The conditions noted are these: Human immunodeficiency virus 1, RES056, MT4. In kind it is functional, organism-based. In general terms: Cytopathic effects are the visible damage that an infection or toxin causes in cultured cells.

Series [4] relates to Human immunodeficiency virus 1. The experiment in a line: Antiviral activity against HIV1 3B infected in human MT4 cells assessed as inhibition of virus-induced cytopathicity by MTT assay. The conditions noted are these: Human immunodeficiency virus 1, 3B. In kind it is functional, organism-based.
A short description of series [5]: Selectivity index, ratio of CC50 for human MT4 cells to EC50 for HIV1 3B. Particulars: read-out: Ratio CC50/EC50. In kind it is toxicity, cell-based.
In series [6] the target is Human immunodeficiency virus type 1 reverse transcriptase (Human immunodeficiency virus 1, UniProt Q72547). Description: Inhibition of HIV1 reverse transcriptase assessed as biotin-dUTP incorporation into enzyme using […] as template primer by colorimetric analysis.
The nature of series [7]: Cytotoxicity against human MT4 cells by MTT assay. In kind it is cell-based. Background: Tetrazolium dyes change colour on reduction, which living cells bring about.
A short description of series [8]: Selectivity index, ratio of CC50 for human MT4 cells to EC50 for HIV2 ROD. In kind it is toxicity, cell-based. Particulars: read-out: Ratio CC50/EC50.
The test system of series [9] is Human immunodeficiency virus 1. The experiment in a line: Ratio of nevirapine EC50 to compound EC50 for HIV1 3B. In kind it is functional.
Series [10] deals with Human immunodeficiency virus 1. Description: Ratio of delavirdine EC50 to compound EC50 for HIV1 3B. In kind it is functional.
In series [11] the test system is Human immunodeficiency virus 1. The experiment in a line: Ratio of dideoxycytidine EC50 to compound EC50 for HIV1 3B. In kind it is functional.

In general, EC50 refers to the concentration giving half of the maximal effect. In general, IC50 refers to the concentration needed to halve the response being measured. Broadly, the CC50 is the concentration at which the toxic effect on the cells reaches its halfway point. A high value points to better tolerance by the cells.

Take `Cc1ccc(NC(=O)CSc2nncnc2-c2ccccc2Cl)c([N+](=O)[O-])c1`: the selectivity ratio is ≤ 1 in series [1], 3330 in [5] and < 1 in series [8]. Also, the results for the EC50 in series [2], in series [3] and in series [4] were > 158 µM, ≥ 22 µM and 48 nM, respectively. Besides, in series [6], the half-maximal inhibitory concentration (IC50) was determined as 18 µM. In addition, the 50% cytotoxic concentration (CC50) in series [7] amounted to 158 µM.
As to `O=C(CSc1nncnc1-c1ccccc1Cl)Nc1ccccc1[N+](=O)[O-]`, the selectivity ratio in [1] was ≤ 6; in series [5], 2160; in series [8], < 1. Also, the EC50 was > 63 µM in series [2], ≥ 11 µM in [3] and 23 nM in [4]. In series [6], the IC50 turned out to be 6.5 µM. This molecule registered a CC50 in series [7] of 63 µM.
For `NS(=O)(=O)c1ccc(NC(=O)CSc2nncnc2-c2cccc3ccccc23)c(Br)c1`, the selectivity ratio in [1] is 7; in series [5] it was 1290; in series [8], < 1. The concentration giving a half-maximal response (EC50) is > 23 µM in [2], 3.3 µM in series [3] and 18 nM in series [4]. Moreover, the entries for the “Ratio EC50” value in series [9], in [10] and in series [11] were 11, 2 and 78, respectively. Moreover, in series [7], the CC50 stood at 23 µM.
In the case of `O=C(CSc1nncnc1-c1ccccc1Cl)Nc1cccnc1Cl`, the selectivity ratio in series [1] is 7; in series [5] it was 2240; in series [8] it was < 1. The EC50 is > 167 µM in series [2], 23 µM in series [3] and 74 nM in series [4]. In series [7], this molecule registered a half-maximal cytotoxic concentration (CC50) of 167 µM.
For `Cc1ccccc1NC(=O)CSc1nncnc1-c1cccc2ccccc12`, the selectivity ratio was < 1 in [1], 194 in series [5] and < 1 in [8]. Also, the EC50 in [2] was > 158 µM; in series [3], > 158 µM; in series [4], 828 nM. In series [7], this molecule gave a cytotoxic concentration (CC50) of 158 µM.
As to `COC(=O)c1ccc(NC(=O)CSc2nncnc2-c2cccc3ccccc23)c(Br)c1`, the selectivity ratio in [1] is 7; in [5], 2560; in series [8], < 1. The concentration giving a half-maximal response (EC50) in series [2] is > 173 µM; in series [3], 25 µM; in [4], 69 nM. In [7], the CC50 worked out at 173 µM.
For the molecule `Cc1ccccc1NC(=O)CSc1nncnc1-c1ccccc1Cl`, the values for the selectivity ratio in series [1], in series [5] and in series [8] were < 1, 465 and < 1, respectively. The EC50 was > 142 µM in series [2], > 142 µM in [3] and 297 nM in series [4]. The molecule also yielded a 50% cytotoxic concentration (CC50) in series [7] of 142 µM.
On to `O=C(CSc1nncnc1-c1ccccc1Cl)Nc1ccc(Cl)cc1Cl`, for which the selectivity ratio in series [1] was < 1; in [5] it was 190; in series [8], < 1. Moreover, the half-maximal effective concentration (EC50) was > 51 µM in series [2], > 51 µM in series [3] and 258 nM in series [4]. In addition, in series [7], it took 51 µM to reach half-maximal cytotoxicity (CC50).
`COC(=O)c1ccc(NC(=O)CSc2nncnc2-c2ccccc2Cl)c(Br)c1`: the selectivity ratio is < 1 in [1], 311 in series [5] and < 1 in series [8]. Besides, the values for the EC50 in series [2], in [3] and in series [4] were > 59 µM, > 59 µM and 190 nM, respectively. This molecule also gave a 50% cytotoxic concentration (CC50) in [7] of 59 µM.
On to `O=C(CSc1nncnc1-c1cccc2ccccc12)N1CCc2ccccc2C1`, for which the results for the selectivity ratio in series [1], in series [5] and in series [8] were < 1, 17 and < 1, respectively. The EC50 was > 13 µM in series [2], > 13 µM in series [3] and 751 nM in series [4]. The molecule further showed a CC50 in series [7] of 13 µM.
On to `O=C(CSc1nncnc1-c1cccc2ccccc12)Nc1ccccc1Br`, for which the selectivity ratio in series [1] is ≤ 2; in [5], 503; in [8] it was < 1. Further, the results for the EC50 in [2], in series [3] and in series [4] were > 87 µM, ≥ 43 µM and 173 nM, respectively. Besides, in series [7], the CC50 worked out at 87 µM.
As for `CC(=O)c1ccc(NC(=O)CSc2nncnc2-c2cccc3ccccc23)c(Br)c1`, the selectivity ratio is 31 in series [1], 2680 in series [5] and < 1 in series [8]. Besides, the EC50 was > 133 µM in series [2], 4.3 µM in series [3] and 51 nM in series [4]. In series [7], this molecule yielded a CC50 of 133 µM.
